Reference: PubChem BioAssay AID1671316

Biological target: Tyrosine-protein kinase Lck (Homo sapiens) (UniProt P06239)
Assay: PubChem AID 1671316
Conditions: Z'-LYTE FRET kinase assay, recombinant LCK

Chain of Tyrosine-protein kinase Lck (Homo sapiens) (P06239 whole entry, looked up): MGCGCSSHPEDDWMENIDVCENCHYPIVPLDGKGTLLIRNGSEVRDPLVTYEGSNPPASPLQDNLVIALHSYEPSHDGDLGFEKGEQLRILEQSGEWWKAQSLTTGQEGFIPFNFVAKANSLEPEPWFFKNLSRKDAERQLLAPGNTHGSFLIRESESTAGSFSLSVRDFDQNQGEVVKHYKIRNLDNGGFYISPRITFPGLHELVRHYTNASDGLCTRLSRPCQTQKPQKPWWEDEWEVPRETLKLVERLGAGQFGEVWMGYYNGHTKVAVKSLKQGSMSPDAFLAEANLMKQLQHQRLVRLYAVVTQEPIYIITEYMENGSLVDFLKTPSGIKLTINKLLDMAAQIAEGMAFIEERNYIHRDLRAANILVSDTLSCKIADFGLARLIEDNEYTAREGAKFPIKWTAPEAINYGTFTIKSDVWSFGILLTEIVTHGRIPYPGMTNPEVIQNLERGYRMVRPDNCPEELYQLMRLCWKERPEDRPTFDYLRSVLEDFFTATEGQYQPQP

SMILES: COc1cc2ncnc(Nc3cccc(Cl)c3)c2cc1OC
- IC50: 0.799 µM
